Experimental data taken from PMC9000886, “Protection-Free Strategy for the Synthesis of Boro-Depsipeptides in Aqueous Media under Microwave-Assisted Conditions” (Molecules, 2022).

Assay: Solubility observed when preparing compounds for the cytotoxicity experiments
Assay type: physicochemical
Settings: reason for exclusion from cytotoxicity experiments; stocks 1 mM in 100% DMSO
Description: HEK293 cells were plated at 70% density in 24-well plates at 37 °C. All compounds were first dissolved in 100% DMSO to give 1 mM as a stock for the following dilutions. […] Further, the cell viability was measured by the 3-(4,5-Dimethyl-2-thiazolyl)-2,5-diphenyl-2H-tetrazolium bromide (MTT) assay. After incubating for 1h, the reaction product was read at 570 nm using a Synergy HT microplate reader (BioTek Instruments, Winooski, VT, USA).

Which solubility does the source give for `CC(C)(C)NC(=O)COC(=O)c1ccc(B(O)O)cc1` [Compound 5a, (4-((2-(Tert-Butylamino)-2-Oxoethoxy)carbonyl)phenyl)boronic Acid] here?
The solubility was “poor solubility”.

With `CC(C)(C)NC(=O)C(OC(=O)c1ccc(B(O)O)cc1)c1ccnc2ccccc12` (centres unmarked) [Compound 5i, (4-((2-(Tert-Butylamino)-2-Oxo-1-(Quinolin-4-yl)ethoxy)carbonyl)phenyl)boronic Acid] as the compound, how does the solubility read?
The solubility was “poor solubility”.

With `CC(C)C(=O)OC(C(=O)NC(C)(C)C)c1ccc(F)c(B(O)O)c1` (centres unmarked) [Compound 4e, (5-(2-(Tert-Butylamino)-1-(Isobutyryloxy)-2-Oxoethyl)-2-Fluorophenyl)boronic Acid] as the compound, how does the solubility read?
Its solubility is “poor solubility”.

For `CC(C)(C)NC(=O)C(OC(=O)c1ccc(B(O)O)cc1)c1ccccc1F` (centres unmarked) [Compound 5h, (4-((2-(Tert-Butylamino)-1-(2-Fluorophenyl)-2-Oxoethoxy)carbonyl)phenyl)boronic Acid], which solubility is on record?
Its solubility is “poor solubility”.

For `CC(C)(C)NC(=O)COC(=O)c1ccc(B(O)O)c([N+](=O)[O-])c1` [Compound 5l, (4-((2-(Tert-Butylamino)-2-Oxoethoxy)carbonyl)-2-Nitrophenyl)boronic Acid], which solubility is on record?
Its solubility is “poor solubility”.
